Patent US11926614B2, “1,2,4-triazole derivatives as tankyrase inhibitors” (priority 2018, dated 2024)
Like-named read-outs stand apart in the source and are kept apart here.

Experiments:
[1] = system: HEK293; assay: Cellular IC50 HEK293; type: cell-based
Text: (§1) XLfit (idbs) was used to determine the IC50-values in inhibition experiments. The following formula was chosen to fit the data points (Langmuir Binding Isotherm): fit=((A+(B*x))+4(C−B)*(1−exp((−1*D)*x)))/D)), res=(y−fit)

[2] = molecular target: TNKS2 (Homo sapiens (Human), UniProt Q9H2K2); assay: Biochemical IC50 TNKS2
Chain of TNKS2 (Q9H2K2 whole entry): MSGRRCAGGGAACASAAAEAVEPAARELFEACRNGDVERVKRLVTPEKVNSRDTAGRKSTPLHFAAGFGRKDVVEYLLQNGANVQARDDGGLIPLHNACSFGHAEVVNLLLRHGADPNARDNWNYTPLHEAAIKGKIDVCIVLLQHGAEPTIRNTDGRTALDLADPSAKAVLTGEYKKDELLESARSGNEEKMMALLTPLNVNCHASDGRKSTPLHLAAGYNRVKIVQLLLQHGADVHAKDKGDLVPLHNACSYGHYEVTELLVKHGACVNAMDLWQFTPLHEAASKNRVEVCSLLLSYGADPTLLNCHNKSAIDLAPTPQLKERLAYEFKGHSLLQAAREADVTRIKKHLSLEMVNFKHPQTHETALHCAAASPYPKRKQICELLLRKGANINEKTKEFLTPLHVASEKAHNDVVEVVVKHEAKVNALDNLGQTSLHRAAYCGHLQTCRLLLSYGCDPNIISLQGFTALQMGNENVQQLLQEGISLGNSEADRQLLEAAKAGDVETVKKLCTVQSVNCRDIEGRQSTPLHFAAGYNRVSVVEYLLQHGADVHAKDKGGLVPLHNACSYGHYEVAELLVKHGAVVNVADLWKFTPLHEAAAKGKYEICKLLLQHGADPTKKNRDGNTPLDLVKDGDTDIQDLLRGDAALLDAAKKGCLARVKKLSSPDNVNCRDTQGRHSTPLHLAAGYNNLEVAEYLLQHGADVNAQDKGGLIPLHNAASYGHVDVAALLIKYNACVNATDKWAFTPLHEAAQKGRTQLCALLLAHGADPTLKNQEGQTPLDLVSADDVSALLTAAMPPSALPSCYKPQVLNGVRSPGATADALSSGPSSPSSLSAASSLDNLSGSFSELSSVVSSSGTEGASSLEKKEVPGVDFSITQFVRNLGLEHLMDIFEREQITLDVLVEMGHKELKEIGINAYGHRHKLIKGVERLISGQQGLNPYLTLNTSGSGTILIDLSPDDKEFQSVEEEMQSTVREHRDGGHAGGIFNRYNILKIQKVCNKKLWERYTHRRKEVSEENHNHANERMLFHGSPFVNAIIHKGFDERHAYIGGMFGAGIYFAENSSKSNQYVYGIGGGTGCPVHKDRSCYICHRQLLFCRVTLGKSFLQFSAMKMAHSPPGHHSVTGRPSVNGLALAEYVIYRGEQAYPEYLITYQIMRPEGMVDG
Text: as §1

[3] = Homo sapiens, HEK293, HEK293; read-out: Cellular IC50 HEK293
[4] = Homo sapiens, HEK293, read-out: Cellular IC50 HEK293
[5] = read-out: Biochemical IC50 TNKS2

| SMILES | IC50 [1, 3] [nM] | IC50 [2] [nM] | IC50 [1, 4] [nM] | IC50 [2, 5] [nM] | IC50 ([1]; Homo sapiens, HEK293; read-out: Cellular IC50 HEK293) [nM] |
| --- | --- | --- | --- | --- | --- |
| [2H]C([2H])([2H])C([2H])([2H])Oc1ccc(-c2nnc([C@H]3C[C@H](NC(=O)c4cccc5cccnc45)C3)n2-c2ccccc2F)nc1 [Example 95, N-((1S,3r)-3-(5-(5-(ethoxy-d5)pyridin-2-yl)-4-(2-fluorophenyl)-4H-1,2,4-triazol-3-yl)cyclobutyl)quinoline-8-carboxamide] | 0.48 | 3.5 | – | – | – |
| CCOc1ccc(-c2nnc([C@H]3C[C@H](NC(=O)c4ccc5ncccc5n4)C3)n2-c2ccccc2F)nc1 [Example 96, N-((1S,3r)-3-(5-(5-ethoxypyridin-2-yl)-4-(2-fluorophenyl)-4H-1,2,4-triazol-3-yl)cyclobutyl)-1,5-naphthyridine-2-carboxamide] | – | – | 5 | 1.5 | – |
| CCOc1ccc(-c2nnc([C@H]3C[C@H](NC(=O)c4ccc5cnccc5n4)C3)n2-c2ccccc2F)nc1 [Example 97, N-((1S,3r)-3-(5-(5-ethoxypyridin-2-yl)-4-(2-fluorophenyl)-4H-1,2,4-triazol-3-yl)cyclobutyl)-1,6-naphthyridine-2-carboxamide] | 7.5 | – | – | 2.5 | – |
| CCOc1ccc(-c2nnc([C@H]3C[C@H](NC(=O)c4ccc5cc[nH]c5n4)C3)n2-c2ccccc2F)nc1 [Example 98, N-((1S,3r)-3-(5-(5-ethoxypyridin-2-yl)-4-(2-fluorophenyl)-4H-1,2,4-triazol-3-yl)cyclobutyl)-1H-pyrrolo[2,3-b]pyridine-6-carboxamide] | 14 | – | – | 4.9 | – |
| CCOc1ccc(-c2nnc([C@H]3C[C@H](NC(=O)c4cc5ccccc5cn4)C3)n2-c2ccccc2F)nc1 [Example 99, N-((1S,3r)-3-(5-(5-ethoxypyridin-2-yl)-4-(2-fluorophenyl)-4H-1,2,4-triazol-3-yl)cyclobutyl)isoquinoline-3-carboxamide] | 18 | – | – | 5.4 | – |
| CCOc1ccc(-c2nnc([C@H]3C[C@H](NC(=O)c4ccc(C(C)(C)O)cn4)C3)n2-c2ccccc2F)nc1 [Example 101, N-((1S,3r)-3-(5-(5-ethoxypyridin-2-yl)-4-(2-fluorophenyl)-4H-1,2,4-triazol-3-yl)cyclobutyl)-5-(2-hydroxypropan-2-yl)picolinamide] | 96 | – | – | 22 | – |
| CCOc1ccc(-c2nnc([C@H]3C[C@H](NC(=O)c4ncccc4C)C3)n2-c2ccccc2F)nc1 [Example 102, N-((1S,3r)-3-(5-(5-ethoxypyridin-2-yl)-4-(2-fluorophenyl)-4H-1,2,4-triazol-3-yl)cyclobutyl)-3-methylpicolinamide] | 919 | – | – | 190 | – |
| CCOc1ccc(-c2nnc([C@H]3C[C@H](NC(=O)c4cc(C)ccn4)C3)n2-c2ccccc2F)nc1 [Example 103, N-((1S,3r)-3-(5-(5-ethoxypyridin-2-yl)-4-(2-fluorophenyl)-4H-1,2,4-triazol-3-yl)cyclobutyl)-4-methylpicolinamide] | 25 | – | – | 4.5 | – |
| CCOc1ccc(-c2nnc([C@H]3C[C@H](NC(=O)c4ccc5ccccc5n4)C3)n2-c2ccccc2F)nc1 [Example 104, N-((1S,3r)-3-(5-(5-ethoxypyridin-2-yl)-4-(2-fluorophenyl)-4H-1,2,4-triazol-3-yl)cyclobutyl)quinoline-2-carboxamide] | 14 | – | – | 6.4 | – |
| O=C(N[C@H]1C[C@H](c2nnc(-c3ccc(OC4CC4)cn3)n2-c2ccccc2F)C1)c1ccccn1 [Example 106, N-((1S,3r)-3-(5-(5-cyclopropoxypyridin-2-yl)-4-(2-fluorophenyl)-4H-1,2,4-triazol-3-yl)cyclobutyl)picolinamide] | – | – | 49 | 8.6 | – |
| CS(=O)(=O)c1ccc(-c2nnc([C@H]3C[C@H](NC(=O)c4ccc(F)cn4)C3)n2-c2ccccc2F)nc1 [Example 107, 5-fluoro-N-((1S,3r)-3-(4-(2-fluorophenyl)-5-(5-(methylsulfonyl)pyridin-2-yl)-4H-1,2,4-triazol-3-yl)cyclobutyl) picolinamide] | 32 | – | – | 5.7 | – |
| O=C(N[C@H]1C[C@H](c2nnc(-c3nccs3)n2-c2cccnc2)C1)c1ccccn1 [Example 109, N-((1r,3r)-3-(4-(pyridin-3-yl)-5-(thiazol-2-yl)-4H-1,2,4-triazol-3-yl)cyclobutyl)picolinamide] | 4700 | – | – | 800 | – |
| CC(C)Oc1ccc(-c2nnc([C@H]3C[C@H](NC(=O)c4ccccn4)C3)n2-c2ccccc2F)nc1 [Example 111, N-((1S,3r)-3-(4-(2-fluorophenyl)-5-(5-isopropoxypyridin-2-yl)-4H-1,2,4-triazol-3-yl)cyclobutyl)picolinamide] | – | – | 110 | 12 | – |
| [2H]C([2H])([2H])Oc1ccc(-c2nnc([C@H]3C[C@H](NC(=O)c4ccccn4)C3)n2-c2ccccc2F)nc1 [Example 113, N-((1S,3r)-3-(4-(2-fluorophenyl)-5-(5-(methoxy-d3)pyridin-2-yl)-4H-1,2,4-triazol-3-yl)cyclobutyl)picolinamide] | 74 | 5.6 | – | – | – |
| O=C(N[C@H]1C[C@H](c2nnc(-c3nccs3)n2-c2cccnc2)C1)c1cccc2cccnc12 [Example 114, N-((1r,3r)-3-(4-(pyridin-3-yl)-5-(thiazol-2-yl)-4H-1,2,4-triazol-3-yl)cyclobutyl)quinoline-8-carboxamide] | 230 | – | – | 20 | – |
| CCOc1ccc(-c2nnc([C@H]3C[C@H](NC(=O)c4cccc5cc[nH]c45)C3)n2-c2ccccc2F)nc1 [Example 115, N-((1S,3r)-3-(5-(5-ethoxypyridin-2-yl)-4-(2-fluorophenyl)-4H-1,2,4-triazol-3-yl)cyclobutyl)-1H-indole-7-carboxamide] | 57 | – | – | 10 | – |
| CCOc1ccc(-c2nnc([C@H]3C[C@H](NC(=O)c4cccc5c4OCCO5)C3)n2-c2ccccc2F)nc1 [Example 116, N-((1S,3r)-3-(5-(5-ethoxypyridin-2-yl)-4-(2-fluorophenyl)-4H-1,2,4-triazol-3-yl)cyclobutyl)-2,3-dihydrobenzo[b][1,4]dioxine-5-carboxamide] | 47 | – | – | 4.5 | – |
| CCOc1ccc(-c2nnc([C@H]3C[C@H](NC(=O)c4cn(C)cn4)C3)n2-c2ccccc2F)nc1 [Example 117, N-((1S,3r)-3-(5-(5-ethoxypyridin-2-yl)-4-(2-fluorophenyl)-4H-1,2,4-triazol-3-yl)cyclobutyl)-1-methyl-1H-imidazole-4-carboxamide] | 550 | – | – | 87 | – |
| CCOc1ccc(-c2nnc([C@H]3C[C@H](NC(=O)c4cn5ccccc5n4)C3)n2-c2ccccc2F)nc1 [Example 118, N-((1S,3r)-3-(5-(5-ethoxypyridin-2-yl)-4-(2-fluorophenyl)-4H-1,2,4-triazol-3-yl)cyclobutyl)imidazo[1,2-a]pyridine-2-carboxamide] | 100 | – | – | 12 | – |
| CCOc1ccc(-c2nnc([C@H]3C[C@H](NC(=O)c4cccc(C)n4)C3)n2-c2ccccc2F)nc1 [Example 119, N-((1S,3r)-3-(5-(5-ethoxypyridin-2-yl)-4-(2-fluorophenyl)-4H-1,2,4-triazol-3-yl)cyclobutyl)-6-methylpicolinamide] | 39 | – | – | 5 | – |
| CCOc1ccc(-c2nnc([C@H]3C[C@H](NC(=O)c4ccn(C)n4)C3)n2-c2ccccc2F)nc1 [Example 120, N-((1S,3r)-3-(5-(5-ethoxypyridin-2-yl)-4-(2-fluorophenyl)-4H-1,2,4-triazol-3-yl)cyclobutyl)-1-methyl-1H-pyrazole-3-carboxamide] | 65 | – | – | 18 | – |
| CCOc1ccc(-c2nnc(C34CC(NC(=O)c5ccnc6cccnc56)(C3)C4)n2-c2ccccn2)nc1 [Example 122, N-(3-(5-(5-ethoxypyridin-2-yl)-4-(pyridin-2-yl)-4H-1,2,4-triazol-3-yl)bicyclo[1.1.1]pentan-1-yl)-1,5-naphthyridine-4-carboxamide] | – | – | – | 13 | 20 |
| CCOc1ccc(-c2nnc([C@H]3C[C@H](NC(=O)c4ccnc5cccnc45)C3)n2-c2ccccn2)nc1 [Example 124, N-((1r,3r)-3-(5-(5-ethoxypridin-2-yl)-4-(pyridin-2-yl)-4H-1,2,4-triazol-3-yl)cyclobutyl)-1,5-naphthyridine-4-carboxamide] | – | – | 36 | 5.8 | – |
| CCOc1ccc(-c2nnc([C@H]3C[C@H](NC(=O)c4cccc(C(F)(F)F)n4)C3)n2-c2ccccc2F)nc1 [Example 125, N-((1S,3r)-3-(5-(5-ethoxypyridin-2-yl)-4-(2-fluorophenyl)-4H-1,2,4-triazol-3-yl)cyclobutyl)-6-(trifluoromethyl)picolinamide] | 70 | – | – | 28 | – |
| CCOc1ccc(-c2nnc([C@H]3C[C@H](NC(=O)c4cc5ccncc5[nH]4)C3)n2-c2ccccc2F)nc1 [Example 126, N-((1S,3r)-3-(5-(5-ethoxypyridin-2-yl)-4-(2-fluorophenyl)-4H-1,2,4-triazol-3-yl)cyclobutyl)-1H-pyrrolo[2,3-c]pyridine-2-carboxamide] | 27 | – | – | 4.1 | – |
| CCOc1ccc(-c2nnc([C@H]3C[C@H](NC(=O)c4cc5cc(OC)ncc5[nH]4)C3)n2-c2ccccc2F)nc1 [Example 127, N-((1S,3r)-3-(5-(5-ethoxypyridin-2-yl)-4-(2-fluorophenyl)-4H-1,2,4-triazol-3-yl)cyclobutyl)-5-methoxy-1H-pyrrolo[2,3-c]pyridine-2-carboxamide] | 9.1 | – | – | 4.3 | – |
| CCOc1ccc(-c2nnc([C@H]3C[C@H](NC(=O)c4cccc(C(C)O)n4)C3)n2-c2ccccc2F)nc1 (stereo partly drawn) [Example 128, N-((1R,3r)-3-(5-(5-ethoxypyridin-2-yl)-4-(2-fluorophenyl)-4H-1,2,4-triazol-3-yl)cyclobutyl)-6-(1-hydroxyethyl)picolinamide] | 230 | – | – | 37 | – |
